The record followed here is US20120094958A1, “QUINOLINES AS INHIBITORS OF FARNESYL PYROPHOSPHATE SYNTHASE” (NOVARTIS AG, priority 2008, published 2012).

In series [1] the target is T1, FPPS (Farnesyl pyrophosphate synthase) (Homo sapiens, UniProt P14324).
T1 sequence (P14324 1-353 isoform P14324-2): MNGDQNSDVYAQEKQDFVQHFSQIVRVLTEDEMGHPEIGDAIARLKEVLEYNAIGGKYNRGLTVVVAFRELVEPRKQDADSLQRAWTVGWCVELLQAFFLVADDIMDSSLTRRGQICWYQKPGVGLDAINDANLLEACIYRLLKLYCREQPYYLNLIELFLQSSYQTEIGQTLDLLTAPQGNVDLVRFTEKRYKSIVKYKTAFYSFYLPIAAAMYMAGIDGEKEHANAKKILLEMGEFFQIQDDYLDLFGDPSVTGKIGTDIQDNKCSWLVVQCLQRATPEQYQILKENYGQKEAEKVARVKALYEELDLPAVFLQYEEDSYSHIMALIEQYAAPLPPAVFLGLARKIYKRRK
Description: FPPS Assay: LC-MS Method. The class given is biochemical. As to conditions: GPP/IPP 5 μM each, reaction stopped after 10 minutes. The procedure: Recombinant human Farnesyl Pyrophosphate synthase (FPPS) was cloned, expressed and purified as previously described {J.-M. Rondeau et al., ChemMedChem 2006, 1, 267-271.} and stored as a 10 mg/mL stock solution in 25 mM Tris pH 7.4, 25 mM NaCl, 2 mM DTT (dithiothreitol). Geranyl pyrophosphate (GPP) was purchased from Anawa AG (Switzerland) and stored as a 1 mg/mL solution in 4 parts isopropanol:3 parts ammonia:1 part water. 1-[^3H]Isopentenyl pyrophosphate (IPP), 50 Ci/mmol; 1 Ci/mL, was purchased from Anawa AG and stored in ethanol:ammonia hydroxide 1:1 at −80 C. 1-[^3H] Farnesyl pyrophosphate triammonium salt, 100 Ci/mmol; 1 mCi/mL in 70% ethanol, 0.25 M ammonium bicarbonate was purchased from Anawa AG. Phospholipid-coated 384-well image FlashPlates™ were purchased from PerkinElmer. the assay buffer consisted of 20 mM HEPES pH7.4, 5 mM MgCl2 and 1 mM CaCl2.
Selected compounds are assayed in another FPPS based assay:
Into each well of a 384-well plate, 5 μL of compound in 20% DMSO/water is placed. 25 μL of GPP/IPP (5 μM each in assay buffer) is then added. The reaction is started with the addition of 10 μL of FPPS (diluted 1 to 10000 with assay buffer). After 10 minutes, the reaction is stopped by addition of 10 μL of 2 μM FSPP in 2% DMIPA/IPA. The reaction mixture is then extracted with 50 μL of n-pentanol using vortex mixing. After phase separation, 25 μL of the upper (n-pentanol) layer is transferred to a new 384-well plate and the pentanol is evaporated using a vacuum centrifuge. The dried residue is reconstituted in 50 μL of 0.1% DMIPA/water for analysis by the LC/MS/MS method.
LC/MS/MS analyses are performed on a Micromass Quattro Micro interfaced to an Agilent 1100 binary LC pump. Injection is performed by a Gilson 215/889 autosampler using an injection loop size of 2.5 μL. Chromatography is performed on a Waters 2.1×20 mm Xterra MS C18 5 μm guard column (P/N186000652) contained in a guard column holder (P/N 186000262) using 0.1% DMIPA/methanol as solvent A and 0.1% DMIPA/water as solvent B. The gradient is 5% A from 0.00 to 0.30 min, 50% A at 0.31 min, 80% A at 1.00 min, and 5% A from 1.01 to 2.00 min. The flow rate is 0.3 mL/min and the flow is diverted to waste from 0.00 to 0.50 min and again from 1.20 to 2.00 min.
The MRM transitions monitored are 381^−>79^− for FPP and 397^−>159^− for FSPP at a collision energy of 22 eV and a collision cell pressure of 2.1×10^−3 mbar of Ar. The dwell time per transition is 400 msec with a span of 0.4 Da. The interchannel delay and interscan delay are both 0.02 sec. Other mass spectrometric operating parameters are: capillary, 2.0 kV; cone, 35 V; extractor, 2.0 V, source temp., 100° C.; desolvation gas temp., 250° C.; desolvation gas flow, 650 L/hr; cone gas flow, 25 L/hr; multiplier, 650 V.
The total cycle time per sample is 2.5 minutes. Since the analysis is formatted for 384-well plates, a plate is analyzed in 16 hours. The chromatograms are processed using Quanlynx software, which divides the area of individual FPP peaks by the area of the FSPP peaks (internal standard). The resulting values are reported as the relative response for the corresponding sample well.

Series [2] concerns the target T2, Recombinant human Farnesyl Pyrophosphate synthase (FPPS) (Homo sapiens, UniProt P14324).
T2 construct: made in house
T2 sequence (P14324 1-353 isoform P14324-2): T1 sequence (P14324 1-353 isoform P14324-2)
The series can be described thus: FPPS enzyme assay, scintillation proximity (FlashPlate). It counts as biochemical.

[3] abbreviates: FlashPlate SPA, GPP 150 nM, [3H]-IPP 150 nM, FPPS 500 pM, 45 minutes at room temperature, highest concentration tested 100 μM, read-out: FPPS IC50.

SMILES strings stand for the structures. Counter-ions that a name gives are not always drawn. Like-named read-outs stand apart in the source and are kept apart here. Where only a bound is given, the exact number is not on record here.

On to `Cc1cccc2c(-c3cccc4ccc(C(=O)O)nc34)cccc12` [Example 38, 8-(5-Methyl-naphthalen-1-yl)-quinoline-2-carboxylic acid], for which the half-inhibitory concentration (IC50) in series [1] amounted to 217 nM.

In the case of `CCOc1c(N)cc(-c2cccc3ccccc23)c2nc(C(=O)O)ccc12` [Example 30, 6-Amino-5-ethoxy-8-naphthalen-1-yl-quinoline-2-carboxylic acid], the melting point lay within 182 to 184 °C. Besides, half-maximal inhibition in series [1] (IC50) required 24 nM.

With `O=P(O)(O)c1ccc2cc(-c3ccc4c(c3)OCO4)cc(-c3cccc4ccccc34)c2n1` [Example 27f.ii], the IC50 in series [1] was found to be 977 nM.

In series [1], `O=C(O)c1ccc2cc(-c3cccs3)cc(-c3cccc4ccccc34)c2n1` [Example 35, 8-Naphthalen-1-yl-6-thiophen-2-yl-quinoline-2-carboxylic acid lithium salt] gave an IC50 of 311 nM.

`CCOC(=O)Nc1cc(-c2cccc3ccccc23)c2nc(-c3nn[nH]n3)ccc2c1` [Example 50, N-[8-Naphthalen-1-yl-2-(2H-tetrazol-5-yl)-quinolin-6-yl]-carbamic acid ethyl ester]: the midpoint of inhibition in series [1], the IC50, lay at 19 nM.

In series [1], `O=P(O)(O)c1ccc2cc(-c3ccsc3)cc(-c3cccc4ccccc34)c2n1` [Example 27c.ii] gave an IC50 of 205 nM.

`O=P(O)(O)c1ccc2cc(-c3ccco3)cc(-c3cccc4ccccc34)c2n1` [Example 27d.ii] displayed an IC50 in series [1] of 900 nM.

In series [1], `O=P(O)(O)c1ccc2cc(-c3cccc(O)c3)cc(-c3cccc4ccccc34)c2n1` [Example 28, [6-(3-Hydroxy-phenyl)-8-naphthalen-1-yl-quinolin-2-yl]-phosphonic acid] registered an IC50 of 606 nM.

Compound `CS(=O)(=O)Nc1cc(-c2cccc3ccccc23)c2nc(/C=C/P(=O)(O)O)ccc2c1` [Example 46, [(E)-2-(6-Methanesulfonylamino-8-naphthalen-1-yl-quinolin-2-yl)-vinyl]-phosphonic acid] displayed an IC50 in series [1] of 91 nM.

The compound `O=P(O)(O)c1ccc2cc(I)cc(-c3cccc4ccccc34)c2n1` [Example 21, (6-Iodo-8-naphthalen-1-yl-quinolin-2-yl)-phosphonic acid] displayed an IC50 in series [1] of 507 nM.

For the compound `CCOc1c(I)cc(-c2cccc3ccccc23)c2nc(C(=O)O)ccc12` [Example 33, 5-Ethoxy-6-iodo-8-naphthalen-1-yl-quinoline-2-carboxylic acid lithium salt], the midpoint of inhibition in series [1], the IC50, lay at 56 nM.

For the compound `Nc1cccc2c(-c3cccc4ccc(C(=O)O)nc34)cccc12` [Example 39, 8-(5-Amino-naphthalen-1-yl)-quinoline-2-carboxylic acid], in series [1], the IC50 was found to be 267 nM.

With `O=C(O)c1ccc2cc(I)cc(-c3cccc4ccccc34)c2n1` [Example 32, 6-Iodo-8-naphthalen-1-yl-quinoline-2-carboxylic acid lithium salt], 160 nM corresponded to half-maximal inhibition in series [1] (IC50).

`CC(=O)Nc1cc(-c2cccc3ccccc23)c2nc(-c3nn[nH]n3)ccc2c1` [Example 51, N-[8-Naphthalen-1-yl-2-(2H-tetrazol-5-yl)-quinolin-6-yl]-acetamide] came in with an IC50 in series [1] of 48 nM.

In the case of `O=[N+]([O-])c1cc(-c2cccc3ccccc23)c2nc(/C=C/P(=O)(O)O)ccc2c1` [Example 43, [(E)-2-(6-Nitro-8-naphthalen-1-yl-quinolin-2-yl)-vinyl]-phosphonic acid], in series [1], it took 103 nM to reach half-maximal inhibition (IC50).

As for `O=C(Nc1cc(-c2cccc3ccccc23)c2nc(/C=C/P(=O)(O)O)ccc2c1)c1cccnc1` [Example 48, ((E)-2-{8-Naphthalen-1-yl-6-[(pyridine-3-carbonyl)-amino]-quinolin-2-yl}-vinyl)phosphonic acid], the IC50 in series [1] amounted to 12 nM.

Consider `CS(=O)(=O)N(c1cc(-c2cccc3ccccc23)c2nc(/C=C/P(=O)(O)O)ccc2c1)S(C)(=O)=O` [Example 47, {(E)-2-[6-(di-methanesulfonyl)amino-8-naphthalen-1-yl-quinolin-2-yl]-vinyl}-phosphonic acid], for which half-maximal inhibition in series [1] (IC50) was put at 204 nM.

Compound `Nc1cc(-c2cccc3ccccc23)c2nc(/C=C/P(=O)(O)O)ccc2c1` [Example 42, [(E)-2-(6-Amino-8-naphthalen-1-yl-quinolin-2-yl)-vinyl]-phosphonic acid] displayed an IC50 in series [1] of 9 nM.

On to `O=C(O)c1ccc2cccc(-c3cccc4ccccc34)c2n1` [Example 1, 8-Naphthalen-1-quinoline-2-carboxylic acid], for which the IC50 in series [2] (setting [3]) turned out to be 520 nM.

`O=P(O)(O)c1ccc2cc(-c3cccs3)cc(-c3cccc4ccccc34)c2n1` [Example 17, (8-Naphthalen-1-yl-6-thiophen-2-yl-quinolin-2-yl)-phosphonic acid] had an IC50 in series [1] of 266 nM.

Regarding `O=[N+]([O-])c1cc(-c2cccc3ccccc23)c2nc(NCP(=O)(O)O)ccc2c1` [Example 6, [(6-Nitro-8-naphthalen-1-yl-quinolin-2-ylamino)-methyl]-phosphonic acid], the half-maximal inhibitory concentration (IC50) in series [2] (setting [3]) came out at 14000 nM.

Compound `CC(=O)Nc1cc(-c2cccc3ccccc23)c2nc(/C=C/P(=O)(O)O)ccc2c1` [Example 45, [(E)-2-(6-Acetylamino-8-naphthalen-1-yl-quinolin-2-yl)-vinyl]-phosphonic acid] came in with an IC50 in series [1] of 26 nM.

On to `COC(=O)Nc1cc(-c2cccc3ccccc23)c2nc(/C=C/P(=O)(O)O)ccc2c1` [Example 44, [(E)-2-(6-Methoxycarbonylamino-8-naphthalen-1-yl-quinolin-2-yl)-vinyl]-phosphonic acid], for which the IC50 in series [1] worked out at 14 nM.

For `O=C(O)c1ccc2cc(Cl)cc(-c3cccc4ccccc34)c2n1` [Example 54, 6-Chloro-8-naphthalen-1-yl-quinoline-2-carboxylic acid], the IC50 in series [2] (setting [3]) stood at 340 nM.

As for `O=C(OCc1ccccc1)c1ccc2cccc(-c3cccc4cnccc34)c2n1` [Example 2.b.i], the IC50 in series [2] (setting [3]) is above 10000 nM.

As to `O=C(O)c1ccc2cccc(-c3cccc4ncccc34)c2n1` [Example 2.c.ii], in series [2] (setting [3]), the IC50 turned out to be 2700 nM.

In the case of `COC(=O)C(CNC(=O)c1ccc2cccc(-c3cccc4ccccc34)c2n1)NS(N)(=O)=O` (racemic) [Example 14, rac. 2-[(Amino-sulfonyl)-amino]-3-[(8-naphthalen-1-yl-quinoline-2-carbonyl)amino]-propionic acid methyl ester], the IC50 in series [2] (setting [3]) turned out to be 39700 nM.

For `Nc1cc(-c2cccc3ccccc23)c2nc(C(=O)O)ccc2c1` [Example 31, 6-Amino-8-naphthalen-1-yl-quinoline-2-carboxylic acid], in series [1], the IC50 worked out at 69 nM.

`O=P(O)(O)CCc1ccc2cccc(-c3cccc4ccccc34)c2n1` [Example 41, [2-(8-Naphthalen-1-yl-quinolin-2-yl)-ethyl]-phosphonic acid]: in series [2] (setting [3]), the IC50 amounted to 2300 nM.

In the case of `CCOP(=O)(Cc1ccc2cccc(-c3cccc4ccccc34)c2n1)OCC` [Example 11.6, (8-Naphthalen-1-yl-quinolin-2-ylmethyl)-phosphonic acid diethyl ester], in series [2], the IC50 is above 100000 nM.

In general, IC50 refers to the concentration that inhibits the measured activity by half. The term melting point denotes the temperature of the solid-liquid transition.
